Laboratory results reported in US20070128217A1 (priority 2003, published 2007).

Columns and labels:
[1] = system: antibodies in sera from SARS patients (sera 1a, 1b, 2, 6, 37, 62, London, SARS-yellow, SARS-green); assay type: binding, human; parameters: Binding of serum 6 to linear peptides of protein X1 of SARS-CoV Urbani / Binding of serum 37 to linear peptides of protein X1 of SARS-CoV Urbani / Binding of serum 6 to looped/cyclic peptide (PEPSCAN-ELISA) / Binding of serum 37 to looped/cyclic peptide (PEPSCAN-ELISA) / Binding of serum 37 to looped/cyclic peptides of protein X1 of SARS-CoV Urbani / Binding of serum 6 to linear peptides of protein X2 / Binding of serum 37 to linear peptides of protein X2 / Binding of serum 37 to looped/cyclic peptides of protein X2 of SARS-CoV Urbani / Binding of serum 6 to linear peptides of protein M of SARS-CoV Urbani / Binding of serum 37 to linear peptides of protein M of SARS-CoV Urbani / Binding of serum 6 to looped/cyclic peptides of protein M of SARS-CoV Urbani / Binding of serum 37 to looped/cyclic peptides of protein M of SARS-CoV Urbani / Binding of serum 6 to linear peptides of protein X3 of SARS-CoV Urbani / Binding of serum 37 to linear peptides of protein X3 of SARS-CoV Urbani / Binding of serum 37 to looped/cyclic peptides of protein X3 of SARS-CoV Urbani / Binding of serum 6 to linear peptides of protein X4 of SARS-CoV Urbani / Binding of serum 37 to linear peptides of protein X4 of SARS-CoV Urbani / Binding of serum 37 to looped/cyclic peptides of protein X4 of SARS-CoV Urbani / Binding of serum 6 to linear peptides of protein X5 of SARS-CoV Urbani / Binding of serum 37 to linear peptides of protein X5 of SARS-CoV Urbani / Binding of serum 37 to looped/cyclic peptides of protein X5 of SARS-CoV Urbani / Binding of serum 6 to linear peptides of protein N of SARS-CoV Urbani / Binding of serum 37 to linear peptides of protein N of SARS-CoV Urbani / Binding of serum 6 to linear peptide (PEPSCAN-ELISA) / Binding of serum 1a to looped/cyclic peptides of protein N of SARS-CoV Urbani / Binding of serum 1b to looped/cyclic peptides of protein N of SARS-CoV Urbani / Binding of serum 2 to looped/cyclic peptides of protein N of SARS-CoV Urbani / Binding of serum 6 to looped/cyclic peptides of protein N of SARS-CoV Urbani / Binding of serum 37 to looped/cyclic peptides of protein N of SARS-CoV Urbani / Binding of serum 62 to looped/cyclic peptides of protein N of SARS-CoV Urbani / Binding of serum London to looped/cyclic peptides of protein N of SARS-CoV Urbani / Binding of serum SARS-green to looped/cyclic peptides of protein N of SARS-CoV Urbani: unit not given here
[2] = system: control sera (pooled serum of ten healthy LUMC hospital workers; commercial negative donor pooled serum from the Dutch bloodbank); assay type: binding, human; parameters: Binding of Control serum LUMC to linear peptides / Binding of Control serum Blood-bank to linear peptides / Binding of Control serum LUMC to looped peptides / Binding of Control Serum Blood-Bank to Looped peptides / Binding of Control serum LUMC to linear peptides of the protein M of SARS-CoV Urbani / Binding of Control serum Blood-bank to linear peptides of the protein M of SARS-CoV Urbani / Binding of Control serum LUMC to looped peptides of the protein M of SARS-CoV Urbani / Binding of Control Serum Blood-Bank to Looped peptides of the protein M of SARS-CoV Urbani: unit not given here
[3] = system: rabbit serum obtained by immunizing a rabbit with the SARS-CoV strain Frankfurt 1; assay type: binding; parameters: Binding of a rabbit serum to linear peptides / Binding of a rabbit serum to looped peptides / Rabbit serum linear peptides / Rabbit serum looped peptides / Binding of a rabbit serum to linear peptides of protein N of SARS-CoV Urbani (Rabbit serum linear peptides) / Binding of a rabbit serum to looped/cyclic peptides of protein N of SARS-CoV Urbani (Rabbit serum looped peptides): unit not given here

Sequence	Binding of serum 1a to looped/cyclic peptides of protein X2 of SARS-CoV Urbani [1]	Binding of serum 1b to looped/cyclic peptides of protein X2 of SARS-CoV Urbani [1]	Binding of serum 2 to looped/cyclic peptides of protein X2 of SARS-CoV Urbani [1]	Binding of serum 6 to looped/cyclic peptides of protein X2 of SARS-CoV Urbani [1]	Binding of serum 37 to looped/cyclic peptides of protein X2 of SARS-CoV Urbani [1]	Binding of serum 62 to looped/cyclic peptides of protein X2 of SARS-CoV Urbani [1]	Binding of serum London to looped/cyclic peptides of protein X2 of SARS-CoV Urbani [1]	Binding of serum SARS-green to looped/cyclic peptides of protein X2 of SARS-CoV Urbani [1]	Binding of serum SARS-yellow to looped/cyclic peptides of protein X2 of SARS-CoV Urbani [1]	Binding of Control Serum Blood-Bank to Looped peptides [2]	Binding of Control serum Blood-bank to linear peptides [2]	Binding of Control serum LUMC to linear peptides [2]	Binding of Control serum LUMC to looped peptides [2]	Binding of a rabbit serum to linear peptides [3]	Binding of a rabbit serum to looped peptides [3]	Recognition of the peptide by sera of SARS-CoV infected individuals, and form (linear, looped/cyclic) in which it is recognized [1]	Binding of serum 1a to looped/cyclic peptide (PEPSCAN-ELISA) [1]	Binding of serum 1b to looped/cyclic peptide (PEPSCAN-ELISA) [1]	Binding of serum 2 to looped/cyclic peptide (PEPSCAN-ELISA) [1]	Binding of serum 6 to looped/cyclic peptide (PEPSCAN-ELISA) [1]	other results
KVTAFQHQNSKKTTK	0.2	0.2	0.0	0.0	0.2	0.3	0.1	0.0	0.1	0.3	0.2	0.3	0.3	0.6	0.2						Binding of serum 1a to linear peptides of protein X2 [1]: 0.3; Binding of serum 1b to linear peptides of protein X2 [1]: 0.2; Binding of serum 2 to linear peptides of protein X2 [1]: 0.2; Binding of serum 6 to linear peptides of protein X2 [1]: 0.2; Binding of serum 37 to linear peptides of protein X2 [1]: 0.3; Binding of serum 62 to linear peptides of protein X2 [1]: 0.2; Binding of serum London to linear peptides of protein X2 [1]: 0.1; Binding of serum SARS-green to linear peptides of protein X2 [1]: 0.0; Binding of serum SARS-yellow to linear peptides of protein X2 [1]: 0.4
KYTQSTALQELLIQQ	0.8	1.0	0.7	0.7	0.8	1.0	0.5	0.9	0.8	0.9	0.6	0.5	1.0	0.4	0.4						Binding of serum 1a to linear peptides of protein X2 [1]: 0.7; Binding of serum 1b to linear peptides of protein X2 [1]: 0.6; Binding of serum 2 to linear peptides of protein X2 [1]: 0.4; Binding of serum 6 to linear peptides of protein X2 [1]: 0.5; Binding of serum 37 to linear peptides of protein X2 [1]: 0.6; Binding of serum 62 to linear peptides of protein X2 [1]: 0.6; Binding of serum London to linear peptides of protein X2 [1]: 0.5; Binding of serum SARS-green to linear peptides of protein X2 [1]: 0.6; Binding of serum SARS-yellow to linear peptides of protein X2 [1]: 0.6
LACLCKHKKVSTNLC	0.3	0.3	0.2	0.2	0.3	0.4	0.2	0.2	0.3	0.3	0.8	0.7	0.4	0.3	0.3	recognized in linear form					
LALYKGFQFICNLLL										0.6	0.6	0.5	0.6	0.2	0.6		0.5	0.3	0.4	1.4	Binding of serum 1a to linear peptides of protein X1 of SARS-CoV Urbani [1]: 0.7; Binding of serum 1b to linear peptides of protein X1 of SARS-CoV Urbani [1]: 0.5; Binding of serum 2 to linear peptides of protein X1 of SARS-CoV Urbani [1]: 0.5; Binding of serum 6 to linear peptides of protein X1 of SARS-CoV Urbani [1]: 0.4; Binding of serum 37 to linear peptides of protein X1 of SARS-CoV Urbani [1]: 0.5; Binding of serum 37 to looped/cyclic peptide (PEPSCAN-ELISA) [1]: 0.5; Binding of serum 62 to linear peptides of protein X1 of SARS-CoV Urbani [1]: 0.6; Binding of serum 62 to looped/cyclic peptide (PEPSCAN-ELISA) [1]: 0.5; Binding of serum London to linear peptides of protein X1 of SARS-CoV Urbani [1]: 0.2; Binding of serum London to looped/cyclic peptide (PEPSCAN-ELISA) [1]: 1.4; Binding of serum SARS-green to linear peptides of protein X1 of SARS-CoV Urbani [1]: 0.2; Binding of serum SARS-green to looped/cyclic peptide (PEPSCAN-ELISA) [1]: 0.2; Binding of serum SARS-yellow to linear peptides of protein X1 of SARS-CoV Urbani [1]: 0.5; Binding of serum SARS-yellow to looped/cyclic peptide (PEPSCAN-ELISA) [1]: 0.5
LAVFQSATKIIALNK										0.5	0.7	0.6	0.6	0.1	0.7		0.5	0.4	0.5	0.6	Binding of serum 1a to linear peptides of protein X1 of SARS-CoV Urbani [1]: 0.7; Binding of serum 1b to linear peptides of protein X1 of SARS-CoV Urbani [1]: 0.5; Binding of serum 2 to linear peptides of protein X1 of SARS-CoV Urbani [1]: 0.5; Binding of serum 6 to linear peptides of protein X1 of SARS-CoV Urbani [1]: 0.6; Binding of serum 37 to linear peptides of protein X1 of SARS-CoV Urbani [1]: 0.6; Binding of serum 37 to looped/cyclic peptide (PEPSCAN-ELISA) [1]: 0.5; Binding of serum 62 to linear peptides of protein X1 of SARS-CoV Urbani [1]: 0.5; Binding of serum 62 to looped/cyclic peptide (PEPSCAN-ELISA) [1]: 0.6; Binding of serum London to linear peptides of protein X1 of SARS-CoV Urbani [1]: 0.2; Binding of serum London to looped/cyclic peptide (PEPSCAN-ELISA) [1]: 0.7; Binding of serum SARS-green to linear peptides of protein X1 of SARS-CoV Urbani [1]: 0.3; Binding of serum SARS-green to looped/cyclic peptide (PEPSCAN-ELISA) [1]: 0.3; Binding of serum SARS-yellow to linear peptides of protein X1 of SARS-CoV Urbani [1]: 0.4; Binding of serum SARS-yellow to looped/cyclic peptide (PEPSCAN-ELISA) [1]: 0.5
LCKHKKVSTNLCTHS										0.3	0.8	0.7	0.4	0.3	0.3	recognized in linear form					
LCWKCKSKNPLLYDA										0.8	0.7	0.7	0.8	0.3	0.8	recognized in linear form	0.8	0.5	0.7	0.8	Binding of serum 37 to looped/cyclic peptide (PEPSCAN-ELISA) [1]: 0.7; Binding of serum 62 to looped/cyclic peptide (PEPSCAN-ELISA) [1]: 0.8; Binding of serum London to looped/cyclic peptide (PEPSCAN-ELISA) [1]: 0.3; Binding of serum SARS-green to looped/cyclic peptide (PEPSCAN-ELISA) [1]: 0.3; Binding of serum SARS-yellow to looped/cyclic peptide (PEPSCAN-ELISA) [1]: 0.7
